From paper PMC12074917, “Molecular pharmacokinetic mechanism of JBP485 against aristolochic acid I (AAI) -induced nephrotoxicity” (Frontiers in Pharmacology, 2025)

Columns and labels:
[1] = system: NRK-52E cells; assay: Intracellular ROS level by DCFH-DA flow cytometry; assay type: cell-based, rat
Protocol: NRK-52E cells were plated in 6-well culture plates at a density of 5 ×10^4 cells/mL and treated with various concentrations of JBP485 (62.5, 125 and 250 μM) for 2.5 h. After challenge with AAI (11 μM) for 24 h, the cells were harvested and resuspended in 500 μL of DCFH-DA (10 μM) for the detection of ROS by flow cytometry (Becton Dickinson, United States) (Aagaard et al., 2014).

[2] = In vivo renal clearance / pharmacokinetics of AAI after intravenous administration with or without JBP485; parameters: species or system rat; details: rats, i.v.
Protocol: Rats were randomly assigned to an AAI (4 mg/kg) group or an AAI (4 mg/kg) + JBP485 (50 mg/kg) group (n = 5 per group). The drugs were diluted in normal saline and administered intravenously via the left jugular vein. Subsequently, blood samples (0.2 mL) were collected via the right jugular vein with heparinized syringes at 1, 3, 5, 10, 30, 60, 120, 240, 360, and 480 min post-treatment. Isotonic saline solution (0.2 mL) was injected after each blood sample collection. Urine was collected directly from the bladder at 2, 4, 6, and 8 h after drug administration. AAI concentrations were measured by LC–MS/MS. Pharmacokinetic parameters, renal clearance (CLR), and cumulative urinary excretion were calculated.
(§1) The concentrations of the test compounds in plasma, urine, and cell lysates were determined using an Agilent HP1200 liquid chromatography system (Agilent Technology Inc., SC, CA, United States) and an API 3200 triple-quadrupole mass spectrometer (Applied Biosystems, SC, CA, United States). After protein precipitation using acetonitrile, the analyte was separated on a Hypersil BDS C18 column. The mobile phase consisted of acetonitrile and water containing 0.1% (v/v) formic acid (80:20, v/v). The flow rate was 0.4 mL/min. The mass spectrometer was equipped with an electrospray ionization (ESI) source. Data were acquired in positive ion mode and dynamic multiple reaction monitoring (MRM) mode. The ESI source conditions were as follows: ion spray voltage, 5.5 kV; ion source temperature, 600°C; Gas source 1 (GS1, N2) pressure, 50 psi; Gas source 2 (GS2, N2) pressure, 60 psi; curtain gas (CUR) pressure, 12 psi; and collision gas (CAD) pressure, 10 psi. EP and CXP were set at […] for all analytes. The scan range was m/z 359.9→298.1 for AAI and m/z 130.0→71.2 for IS (Internal Standard, metformin). […] Intra- and inter-day precision was lower than 4.5% with reference to relative standard deviation, while accuracy was within ±6.5% in terms of relative error for analytes. Analyst software (version 1.4.1) was used for equipment control and data acquisition and analysis.

[3] = system: NRK-52E cells; assay: CCK-8 cell viability assay; assay type: cell-based, rat
Protocol: AAI was prepared to make a series of working dilutions in serum-free DMEM. The NRK-52E cells were plated in 96-well plates at a density of 5 ×10^4 cells/mL for 24 h at 37 °C and then challenged with various concentrations of AAI (0, 1, 2, 4, 8, 16, 32, 64, 128 and 256 μM). Cell viability was assessed using the CCK-8 assay.
NRK-52E cells were seeded in 96-well plates at a density of 5 × 10^4 cells/mL and incubated for 24 h at 37 °C. Following pretreatment with various concentrations of JBP485 (7.8125, 15.625, 31.25, 62.5, 125, and 250 μM) for 2.5 h, the cells were challenged with AAI (11 μM) for 24 h. Cell viability was subsequently assayed using a CCK-8 kit.

[4] = molecular target: T1, hOAT3 (Homo sapiens, UniProt Q8TCC7); assay: Uptake of AAI by hOAT3-transfected HEK293 cells with or without JBP485; assay type: cell-based
T1 construct: expressed in transfected cells; host or cells: HEK293
T1 sequence (Q8TCC7 1-542): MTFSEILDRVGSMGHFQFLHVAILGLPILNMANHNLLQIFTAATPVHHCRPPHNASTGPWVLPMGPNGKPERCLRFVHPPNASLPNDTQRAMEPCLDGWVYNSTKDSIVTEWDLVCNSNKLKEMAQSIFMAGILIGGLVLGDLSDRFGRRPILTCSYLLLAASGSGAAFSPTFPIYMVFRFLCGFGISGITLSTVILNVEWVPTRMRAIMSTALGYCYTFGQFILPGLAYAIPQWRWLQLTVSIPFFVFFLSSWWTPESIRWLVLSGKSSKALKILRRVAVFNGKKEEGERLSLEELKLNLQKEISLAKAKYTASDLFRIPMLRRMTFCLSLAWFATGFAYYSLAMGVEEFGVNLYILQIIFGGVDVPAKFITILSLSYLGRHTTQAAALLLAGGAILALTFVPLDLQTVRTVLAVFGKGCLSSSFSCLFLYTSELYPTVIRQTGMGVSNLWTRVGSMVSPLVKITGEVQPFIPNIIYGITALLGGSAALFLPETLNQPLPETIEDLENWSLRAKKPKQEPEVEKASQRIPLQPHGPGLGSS
Protocol: Uptake experiments with hOAT1/3-HEK293 cells were performed as previously described ([Zhu et al., 2020]). Uptake was initiated by adding transport buffer (1 mL) with AAI (1 μM) and/or JBP485 (500 μM) after the cells were washed twice and incubated with transport buffer at 37°C. Moreover, the concentration-dependent uptake of AAI and the effects of JBP485 on AAI uptake were examined. Uptake was terminated upon the removal of the medium. The cells were washed three times with 1 mL of ice-cold Hanks’ balanced salt solution, lysed with 0.3 mL of 0.1% (v/v) Triton X-100, and then transferred to a polythene tube for quantification by LC-MS/MS. The protein level was measured using the BCA method (Solarbio, Beijing, China) with bovine serum albumin serving as the standard.
as §1

[5] = AAI 4 mg/kg with or without JBP485 50 mg/kg, n = 5

SMILES | ROS generation in NRK-52E cells ([1]; AAI alone 11 μM 24 h vs control) | AUC0-∞ of AAI [2, 5] [µg·min/L] | AUC(0-t) of AAI [2, 5] [µg·min/L] | CLR (renal clearance) of AAI [2, 5] [L/h/kg] | CLp (plasma clearance) of AAI [2, 5] [L/h/kg] | Vd of AAI [2, 5] [L/kg] | t1/2β of AAI [2, 5] [h] | concentration at which proliferation of NRK-52E cells is significantly inhibited (as low as) ([3]; CCK-8) [nM] | IC50 ([3]; CCK-8, read-out: IC50 for NRK-52E cells (cytotoxicity)) [µM] | Km ([4]; hOAT3-HEK293 cells, with or without JBP485, Eadie-Hofstee, n = 3) [µM] | Vmax of AAI uptake ([4]; hOAT3-HEK293 cells, with or without JBP485, n = 3) [nmol/mg protein/1min] | ROS production in NRK-52E cells ([1]; JBP485 alone vs control) | AAI-induced rise in ROS production in NRK-52E cells ([1]; JBP485 co-administered with AAI 11 μM) | cumulative urinary excretion of AAI over 8 h ([2]; co-treatment with JBP485 50 mg/kg vs AAI 4 mg/kg alone) | AAI plasma concentrations ([2]; concurrent JBP485 50 mg/kg vs AAI 4 mg/kg alone) | survival rates of NRK-52E cells challenged with AAI ([3]; JBP485 7.8125-250 μM pretreatment 2.5 h, AAI 11 μM 24 h) | toxicity against NRK-52E cells ([3]; JBP485 alone, concentrations up to 256 μM) | type of inhibition of AAI uptake ([4]; hOAT3-HEK293 cells, Km increased, Vmax unchanged) | IC50 ([4]; hOAT3-transfected HEK293 cells, substrate AAI, read-out: IC50 of inhibition of AAI uptake, OAT3) [µM]
COc1cccc2c1cc([N+](=O)[O-])c1c(C(=O)O)cc3c(c12)OCO3 [AAI, Aristolochic Acid I] | significant increase | 536.2 ± 14.3 | 496.0 ± 14.5 | 74.4 ± 5.4 | 450 ± 12 | 232.9 ± 13.0 | 1.61 ± 0.107 | 2000 | 11 | 30.6 ± 1.2 | 0.077 ± 0.03 | – | – | – | – | – | – | – | –
O=C1N[C@@H](CO)C(=O)N2C[C@H](O)C[C@@H]12 (relative stereo) [JBP485, cyclo-trans-4-L-hydroxyprolyl-L-serine] | – | – | – | – | – | – | – | – | – | – | – | did not alter | significantly attenuated | reduction | significantly increased | dose-dependently increased | no JBP485-related toxicity | competitive inhibition | 91 ± 10.3
